We go through 19 compounds from patent EP0340198B1, “Immunoassay for the detection of alpha-haloacetamides” (priority 1988, dated 1989).

One experiment concerns alachlor antibodies. Kind of experiment: inhibition ELISA for alachlor (cross-reactivity studies). It counts as binding, rabbit. The following applies: for reaction (cross-reactivity) with the antibodies, in words: relative to alachlor. As to the method: Immunoassays. A known "checkerboard assay" was initially conducted with each serum sample after the first boost to detect the production of antibodies against alachlor. […] The next 7 rows received the subsequent dilutions of the screening antigen. The plate was covered with Parafilm and stored overnight at 4°C. The next morning, the unbound screening antigen was removed from the wells by washing three times with phosphate buffered saline solution (0.01 M phosphate buffer of pH 7.4, 0.15 M NaCl; PBS). The remaining active sites in the wells were blocked with PBS-8% non-fat dry milk solution, (NFDM, 0.3 mL) for 1 hr at 22°C. Serum, which had been stored at -20°C, was freshly thawed and serially diluted (one to two) from 1,000 to 64,000-fold using PBS-T (PBS containing 0.02% Tween 20). Starting with the most concentrated solution, 0.1 mL of the serum solution was pipetted into all 8 wells of column 1; the remaining columns received the subsequent dilutions of the serum solution. The plate was covered and incubated at 22°C for 1.5 hrs. Following triplicate washes of the wells with PBS-T, each of the wells received 0.1 mL of goat anti-rabbit gamma-globulin conjugated to horseradish peroxidase (GAR-HRP) freshly thawed and diluted 4,000 fold with PBS-1% NFDM. After a final wash cycle (4 times) with PBS-T, freshly prepared O-phenylene diamine (PDA) substrate solution (0.2 mL, 0.04 mg/mL PDA and 0.01% H₂O₂ in 0.05 M citric acid and 0.15 M sodium dibasic phosphate, pH 5.0) was dispensed into each of the wells and incubated in the dark at 22°C for 30-60 min. Sulfuric acid (4 N, 50 µL) was added to each of the wells to stop the reaction, and the final absorbances of the wells (490 nm) were recorded.
The inhibition ELISA required one additional step in the assay procedure described above. Equal volumes of the diluted serum and aqueous alachlor standard or unknown sample were mixed and preincubated at 22°C for 1 hr. This mixture (0.1 mL/well) was then analyzed in 6 replicate wells on the plate. The presence of free alachlor inhibited the binding of the antibody to the alachlor-BSA conjugate, resulting in an inhibition of the development of absorbance at 490 nm. The amount of free alachlor was indirectly proportional to the intensity of color developed. Levels of alachlor in unknown water samples were calculated based on the alachlor standards on the same plate. Alachlor standards (0, 0.2, 0.5, 1.0, 3.0, 5.0, and 8.0 ppb in deionized water) were stored at -20°C in 1-mL portions, and were freshly thawed for each assay.
Data Calculations. The lay-out of a typical 96-well microtiter plate is 8 rows of 12 columns in an inhibition ELISA assay for alachlor. The first 6 wells in the first column of wells were not coated with the screening antigen and served as the background wells. The first 6 wells in the remaining 7 columns of wells were reserved for the seven alachlor standards (0 to 8 ppb) listed above. The remaining wells in all 8 rows were used for the samples. The uncorrected absorbances of the wells determined by the Bio-tek reader were used in the following calculations. The median was calculated for the 6 replicate background wells and was then subtracted from the medians of the standards and samples. All the median values were divided by the median of the standard without alachlor (0 ppb) to generate percentages of absorbances. The percent absorbance of the alachlor standards was then plotted on the Y axis against the logarithm (base 10) of the actual concentrations of alachlor on the X axis. A hyperbolic curve was drawn through the standards, and the resulting standard curve was used to calculate the concentrations of alachlor in the unknown samples.
The calculations described above were usually carried out using a computer program.
Background: In an ELISA, binding on a coated surface is turned into a signal by an enzyme label.

Experiment [1] has as its system antibodies toward metolachlor. Kind of experiment: inhibition ELISA for metolachlor. In kind it is binding, rabbits. The conditions noted are these: for inhibition of the ELISA assay for metolachlor: standard solutions at 10 and 50 ppb in DI water. The source says:
(§1) The generation of antibodies toward butachlor (2-chloro-2′,6′-diethyl-N-(butoxymethyl)acetanilide), amidochlor (2-chloro-2′,6′-diethyl-N-acetamidomethyl acetanilide), and metolachlor (2-chloro-2′-ethyl-6′-methyl-N-(2-methoxy-1-methylethyl)acetanilide) were accomplished following identical procedures as those described for alachlor. The individual 14C-labeled chloroacetanilide was covalently bound to HSA (human serum albumin) with AHT, and to sheep IgG with AMSA.
(§2) The hapten-IgG conjugates were used to immunize rabbits. The corresponding hapten-BSA conjugates were then utilized in checkerboard assays to determine the presence of desired antibodies in the antisera. An inhibition ELISA for butachlor was set up with antiserum, butachlor-HSA screening antigen, and butachlor. Similar assays were also set up for amidochlor and metolachlor.
(§3) The sensitivity of the inhibition ELISA for butachlor, amidochlor, and metolachlor was tested with respective standards prepared in DI water. Using the best antiserum, the butachlor ELISA produced an IC50 of 8 ppb.
(§4) The specificity of the ELISA for butachlor, amidochlor, and metolachlor were tested using standard solutions of alachlor, acetochlor, butachlor, amidochlor, metolachlor, and propachlor at concentrations of 10 and 50 ppb in DI water. At these concentrations, the ELISA assay for butachlor, amidochlor, and metolachlor was each inhibited only by the respective free hapten, and not by any of the other chloroacetanilides.

Experiment [2] has as its system antibodies toward butachlor. Put plainly: inhibition ELISA for butachlor. In kind it is binding, rabbits. The conditions noted are these: for inhibition of the ELISA assay for butachlor: standard solutions at 10 and 50 ppb in DI water.
Text: as §1, §2, §3, §4

The test system of experiment [3] is antibodies toward amidochlor. Put plainly: inhibition ELISA for amidochlor. It counts as binding, rabbits. The following applies: for inhibition of the ELISA assay for amidochlor: standard solutions at 10 and 50 ppb in DI water.
Text: as §1, §2, §3, §4

Experiment [4] has as its system antibodies isolated from the serum of the first bleed of the rabbit. Kind of experiment: affinity column binding of 14C-labeled analytes from aqueous solution. The following applies: 14C-labeled analogs, test of non-specific binding. As to the method:
Affinity Chromatography. The preparation of affinity columns using rabbit antisera was as follows: The rabbit IgG's were purified by passing 5 mL of the antiserum through a column containing 5 mL of the swelled protein A-agarose gel. By monitoring the absorbance at 280 nm in the column effluent, the non-bound proteins were removed by washing with PBS, and the IgG's were then eluted with acetic acid at pH 2.3 (0.58% acetic acid and 0.15 M NaCl). The fractions containing the IgG's were combined and neutralized; based on the UV absorbance at 280 nm (absorbance/1.4 = mg/mL protein), approximately 33 mg of IgG were isolated from 5 mL of serum, which was then lyophilized and stored at -20°C. The reusable protein A-agarose column was stored in PBS containing 0.02% sodium azide at 4°C.
The protein A-purified IgG was immobilized onto Affigel-10 affinity support. Affigel-10 (5 mL) was washed 3 times with isopropyl alcohol and 3 times with cold distilled water in a Buchner funnel. The gel was then added to a solution of IgG (3 mL in 0.1 M HEPES buffer, pH 7.5) at 4°C. Following 4 hrs of stirring, the gel was precipitated by gentle centrifugation and washed with HEPES buffer (3 x 3 mL). The remaining active sites on the gel were blocked by resuspending the gel in water (2 mL) and adding ethanolamine HCl (0.5 mL, 1M), and stirring the mixture at 22°C for 1 hr. The affinity column was useful in adsorbing alachlor and other analytes from aqueous solutions. After binding the alachlor, the column was washed with water (2 mL/min) to remove unbound material and alachlor was eluted with 75% aqueous methanol.
Using the antibodies isolated from the serum of the first bleed of the rabbit, an affinity column for alachlor was constructed to study its utility as an isolation and purification tool. The IgG's in the serum of the rabbit immunized with the alachlor-IgG conjugate were purified with a protein A-agarose column. The purified IgG was then immobilized onto the Affigel-10 support. Alachlor (¹⁴C-labeled) in aqueous solution was passed through the column with a flow rate of 2 mL/min; the column was washed with water and eluted with 75% aqueous methanol. The radioactivity in the wash and eluent were determined by liquid scintillation counting. […] The capacity of the column was less than 1 µg, and once this level was exceeded, alachlor no longer bound to the column. The recovery of applied radioactivity generally ranged from 80% to 100%. In a second experiment, alachlor (0.5 µg) was dissolved into increasing volumes of water ranging from 1 mL to 100 mL.
To eliminate the possibility of non-specific binding of alachlor to the affinity column, other ¹⁴C-labeled analogs were also studied. These included acetanilide herbicides butachlor, acetochlor, metolachlor, and propachlor and the previously mentioned alachlor metabolites mercapturate and its methyl ester. The affinity column bound butachlor and acetochlor, but not metolachlor, propachlor, or mercapturate.

The mark [5] stands for this setting: IC50 of alachlor divided by IC50 of analog x 100, bleed not stated.

Take `CCc1cccc(CC)c1N(COC)C(=O)CS(=O)(=O)CCO`: the “reaction (cross-reactivity) with the antibodies, in words” value (“reaction (cross-reactivity)” for short) with alachlor antibodies is reported as “no cross-reactivity”.
Take `CCc1cccc(CC)c1N(COC)C(=O)CSC`: the percent cross-reactivity in the experiment on alachlor antibodies (setting [5]) was 188%. In addition, in the experiment with alachlor antibodies, the “reaction (cross-reactivity)” value is on record as “strong interaction”.
`CCc1cccc(CC)c1NC(=O)CSC`: the “reaction (cross-reactivity)” value with alachlor antibodies is “no cross-reactivity”.
Same read-out and setting: the entry for `CCc1cccc(CC)c1N` [2,6-diethylaniline] is “no reaction”.
The same measure, in the same setting: next, `CCc1cccc(CC)c1N(COC)C(=O)C[S+]([O-])CC(NC(C)=O)C(=O)O` (stereo not shown) [S=O derivative]: “significantly reduced or eliminated”.
Turning to `CCc1cccc(CC)c1N(CNC(C)=O)C(=O)CCl` [amidochlor, 2-chloro-2′,6′-diethyl-N-acetamidomethyl acetanilide], the “reaction (cross-reactivity)” value in the experiment with alachlor antibodies was “little to no interaction”. For the same compound, the “inhibition of the ELISA assay for metolachlor” value (shortened to “inhibition … for metolachlor”) in experiment [1] is listed as “not”. Moreover, in experiment [2], the “inhibition of the ELISA assay for butachlor” value (“inhibition … for butachlor” below) is listed as “not”. Besides, the IC50 in experiment [3] (amidochlor-HSA as the screening antigen, standards in DI water) came to 2 ppb; in experiment [3] (butachlor-HSA substituted for amidochlor-HSA as the screening antigen) it was 0.2 ppb. The “inhibition of the ELISA assay for amidochlor” value (“inhibition … for amidochlor” below) in experiment [3] is reported as “inhibited”.
Consider `CCCCOCN(C(=O)CCl)c1c(CC)cccc1CC` [butachlor, 2-chloro-2′,6′-diethyl-N-(butoxymethyl)acetanilide], for which the “binding by the affinity column” value in experiment [4] is recorded as “bound”. In addition, the “reaction (cross-reactivity)” value in the experiment on alachlor antibodies is given as “little to no interaction”. Further, in experiment [1], the “inhibition … for metolachlor” value is “not”. The IC50 in experiment [2] (best antiserum, butachlor-HSA screening antigen, standards in DI water) came out at 8 ppb. For the same compound, the “inhibition … for butachlor” value in experiment [2] is reported as “inhibited”. The “inhibition … for amidochlor” value in experiment [3] is given as “not”.
As for `CCc1cccc(CC)c1N(COC)C(=O)CSCC(NC(=O)CCC(N)C(=O)O)C(=O)NCC(=O)O` (stereo not shown) [glutathione conjugate of alachlor], the percent cross-reactivity in the experiment with alachlor antibodies (setting [5]) is on record as 27.5%.
For `CCc1cccc(CC)c1N(COC)C(=O)CSCC(NC(C)=O)C(=O)O` (stereo not shown) [mercapturate analog], in experiment [4], the “binding by the affinity column” value is given as “not”. The percent cross-reactivity amounted to 18% in the experiment on alachlor antibodies (bleed four) and 65% in the experiment on alachlor antibodies (bleed seven).
With `CCc1cccc(CC)c1N(COC)C(=O)CSCC(NC(C)=O)C(=O)OC` (stereo not shown) [methyl ester of the mercapturate], the “binding by the affinity column” value in experiment [4] is “Binding was observed”. In addition, the percent cross-reactivity with alachlor antibodies (setting [5]) was 89.7%.
On to `CCc1cccc(C)c1N(C(=O)CCl)C(C)COC` (stereo not shown) [metolachlor, 2-chloro-2′-ethyl-6′-methyl-N-(2-methoxy-1-methylethyl)acetanilide], for which the “binding by the affinity column” value in experiment [4] is “not”. In addition, the “reaction (cross-reactivity)” value in the experiment with alachlor antibodies is “little to no interaction”. The IC50 in experiment [1] (best antiserum, standards in DI water) was 8 ppb. In addition, the “inhibition … for metolachlor” value in experiment [1] is listed as “inhibited”. Also, the “inhibition … for butachlor” value in experiment [2] was “not”. Further, in experiment [3], the “inhibition … for amidochlor” value is “not”.
For `CCc1cccc(CC)c1N(COC)C(C)=O` [norchloro-alachlor], the percent cross-reactivity in the experiment on alachlor antibodies (setting [5]) is given as 22%.
Take `CCc1cccc(CC)c1NC(=O)CSCC(NC(C)=O)C(=O)O` (stereo not shown) [secondary amide mercapturate]: the “reaction (cross-reactivity)” value in the experiment with alachlor antibodies is recorded as “significantly reduced or eliminated”.
In the case of `CCc1cccc(CC)c1N(COC)C(=O)CS(C)(=O)=O` [sulfone analog], in the experiment on alachlor antibodies (setting [5]), the percent cross-reactivity turned out to be 9%.
`CCc1cccc(CC)c1N(COC)C(=O)CS(=O)(=O)O` [sulfonic acid]: the percent cross-reactivity result in the experiment on alachlor antibodies (setting [5]) is listed as “less than 2.5%”. For the same compound, the “reaction (cross-reactivity)” value in the experiment on alachlor antibodies is given as “little reaction”.
`CCc1cccc(CC)c1N(COC)C(=O)C[S+](C)[O-]` (stereo not shown) [sulfoxide analog]: the percent cross-reactivity in the experiment on alachlor antibodies (setting [5]) is 15%.
On the same count and under the same terms, the figure for `CCc1cccc(CC)c1N(COC)C(=O)CSCC(=O)O` [thioacetic acid conjugate of alachlor] is 57.0%.
`CCc1cccc(CC)c1NC(=O)CCl` [α-chloro-2′,6′-diethylacetanilide]: in the experiment on alachlor antibodies, the “reaction (cross-reactivity)” value is on record as “no reaction”.
Turning to oxanilic acid, the percent cross-reactivity result with alachlor antibodies (setting [5]) is given as “less than 2.5%”. In addition, the “reaction (cross-reactivity)” value in the experiment with alachlor antibodies was “little reaction”.
